Source: publication PMC3946900 (Pharmaceutical research, 2013)
Read-outs that look alike come from different tables or passages of the source.

Experiments:
P-gp = assay: Compartmental models of apical efflux fit to permeability data
P-gp (mdr1) = details: cited from earlier work
[1] = molecular target: P-glycoprotein (P-gp, ABCB1; MDR1) (Homo sapiens, UniProt P08183); details: MDCK-MDR1 cells with and without CsA
[2] = 5C model, asa = 1, lipid content = 10%

Sequence of P-glycoprotein (P-gp, ABCB1; MDR1) (P08183 whole entry): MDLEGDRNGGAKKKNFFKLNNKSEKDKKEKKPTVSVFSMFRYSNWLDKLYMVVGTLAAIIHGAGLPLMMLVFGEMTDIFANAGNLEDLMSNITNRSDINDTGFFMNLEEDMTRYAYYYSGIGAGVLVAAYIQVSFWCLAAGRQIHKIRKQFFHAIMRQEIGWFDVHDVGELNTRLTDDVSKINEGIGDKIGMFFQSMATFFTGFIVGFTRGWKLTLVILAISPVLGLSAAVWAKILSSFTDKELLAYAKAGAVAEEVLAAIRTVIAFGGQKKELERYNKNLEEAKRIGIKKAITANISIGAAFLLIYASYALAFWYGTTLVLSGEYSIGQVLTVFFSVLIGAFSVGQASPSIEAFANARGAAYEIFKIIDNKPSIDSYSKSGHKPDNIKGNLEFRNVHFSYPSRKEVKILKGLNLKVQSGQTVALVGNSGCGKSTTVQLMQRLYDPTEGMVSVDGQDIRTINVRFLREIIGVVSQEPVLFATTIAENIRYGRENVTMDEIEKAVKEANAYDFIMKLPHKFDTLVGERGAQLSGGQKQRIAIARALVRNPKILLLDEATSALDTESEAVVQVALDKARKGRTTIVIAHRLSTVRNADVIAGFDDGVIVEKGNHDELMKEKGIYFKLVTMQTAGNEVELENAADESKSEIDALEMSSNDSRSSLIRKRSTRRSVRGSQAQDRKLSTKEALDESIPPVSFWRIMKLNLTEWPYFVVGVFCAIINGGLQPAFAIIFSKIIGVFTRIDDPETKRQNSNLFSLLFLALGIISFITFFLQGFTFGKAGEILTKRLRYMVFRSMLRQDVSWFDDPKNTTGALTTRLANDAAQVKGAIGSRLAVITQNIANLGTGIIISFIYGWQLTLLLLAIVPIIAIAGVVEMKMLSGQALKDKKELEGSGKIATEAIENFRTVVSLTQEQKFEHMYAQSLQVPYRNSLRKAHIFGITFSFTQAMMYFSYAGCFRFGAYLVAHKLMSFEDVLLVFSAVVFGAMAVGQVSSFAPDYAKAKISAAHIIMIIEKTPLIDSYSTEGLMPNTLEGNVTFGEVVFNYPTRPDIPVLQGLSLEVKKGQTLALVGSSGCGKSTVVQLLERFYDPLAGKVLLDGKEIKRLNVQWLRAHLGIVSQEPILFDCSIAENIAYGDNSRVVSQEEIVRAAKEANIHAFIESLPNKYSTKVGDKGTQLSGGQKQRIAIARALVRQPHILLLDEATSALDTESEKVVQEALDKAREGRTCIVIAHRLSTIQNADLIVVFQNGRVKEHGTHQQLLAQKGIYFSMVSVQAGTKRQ

| SMILES | Brain Conc. Ratio mdr1(−/−)/mdr1(+/+) (P-gp (mdr1); mice, brain) | Liver Conc. Ratio mdr1(−/−)/mdr1(+/+) (P-gp (mdr1); mice, liver) | further results |
| --- | --- | --- | --- |
| O=C(O)C[C@H](O)C[C@H](O)/C=C/c1c(C2CC2)nc2ccccc2c1-c1ccc(F)cc1 [Pitavastatin] | 1.3 | 0.88 | CLae (active apical efflux clearance) (P-gp; [2]): 0.030 µL/min; CLi (diffusion clearance into an explicit membrane compartment) (P-gp; [2]): 3.5 µL/min |
| CN(C(=O)C(c1ccccc1)c1ccccc1)[C@H](CN1CC[C@H](O)C1)c1ccccc1 [Asimadoline] | 9.1 | 1.1 | – |
| C=CC[C@@H]1/C=C(\C)C[C@H](C)C[C@H](OC)[C@H]2O[C@@](O)(C(=O)C(=O)N3CCCC[C@H]3C(=O)O[C@H](/C(C)=C/[C@@H]3CC[C@@H](O)[C@H](OC)C3)[C@H](C)[C@@H](O)CC1=O)[C@H](C)C[C@@H]2OC [Tacrolimus] | – | – | Brain Conc. Ratio mdr1(−/−)/mdr1(+/+) (P-gp (mdr1); mouse, in vivo): 6.0; Liver Conc. Ratio mdr1(−/−)/mdr1(+/+) (P-gp (mdr1); mouse, in vivo): 1.7 |
| Cc1c(O)cccc1C(=O)N[C@@H](CSc1ccccc1)[C@H](O)CN1C[C@H]2CCCC[C@H]2C[C@H]1C(=O)NC(C)(C)C [Nelfinavir] | 16.1 | 3.0 | – |
| CN(C)C(=O)C(CCN1CCC(O)(c2ccc(Cl)cc2)CC1)(c1ccccc1)c1ccccc1 [Loperamide] | – | – | permeability (qualitative) [1]: high permeability |
| CO[C@H]1C[C@H](O[C@@H]2/C(C)=C/C[C@@H]3C[C@@H](C[C@]4(CC[C@H](C)[C@@H](C5CCCCC5)O4)O3)OC(=O)[C@@H]3C=C(C)/C(=N/O)[C@H]4OC/C(=C\C=C\[C@@H]2C)[C@]43O)O[C@@H](C)[C@@H]1O [Selamectin] | – | – | Brain Conc. Ratio mdr1(−/−)/mdr1(+/+) (P-gp (mdr1); mouse, in vivo): 4.9; Liver Conc. Ratio mdr1(−/−)/mdr1(+/+) (P-gp (mdr1); mouse, in vivo): 0.5 |
| Nc1cc(N2CCCCC2)nc(N)[n+]1[O-] [Minoxidil] | – | – | CLae (active apical efflux clearance) (P-gp): 0.021 µL/min |
| Cc1nccn1CC1CCc2c(c3ccccc3n2C)C1=O (stereo not shown) [Ondansetron] | 4.0 | 0.9 | – |
| Cc1nnc2n1-c1sc(CCC(=O)N3CCOCC3)cc1C(c1ccccc1Cl)=NC2 [Apafant] | 73.6 | 4.5 | – |
| C/C=C/C[C@@H](C)C(=O)[C@H]1C(=O)N[C@@H](C(C)C)C(=O)N(C)CC(=O)N(C)[C@@H](CC(C)C)C(=O)N[C@@H](C(C)C)C(=O)N(C)[C@@H](CC(C)C)C(=O)N[C@@H](C)C(=O)N[C@H](C)C(=O)N(C)[C@@H](CC(C)C)C(=O)N(C)[C@@H](CC(C)C)C(=O)N(C)[C@@H](C(C)C)C(=O)N1C [SDZ PSC 833] | 2.1 | 0.9 | – |
| CC[C@]1(O)C[C@@H]2CN(CCc3c([nH]c4ccccc34)[C@@](C(=O)OC)(c3cc4c(cc3OC)N(C)[C@H]3[C@@](O)(C(=O)OC)[C@H](OC(C)=O)[C@]5(CC)C=CCN6CC[C@]43[C@@H]65)C2)C1 [Vinblastine] | 22.4 | 1.8 | – |
